Laboratory results: patent US8754099B2, “Oxadiazole beta carboline derivatives as antidiabetic compounds” (Merck Sharp & Dohme Corp, priority 2010, dated 2014)

Columns and labels:
human SSTR3 [1] = target: T1, human SSTR3 (Homo sapiens (Human), UniProt P32745); test: SSTR binding filtration assay (SSTR3); conditions: (3-125I-Tyr11)-SRIF-14 radioligand, CHO-K1 membranes; more active isomer
Method: The receptor-ligand binding assays of all 5 subtype of SSTRs were performed with membranes isolated from Chinese hamster ovary (CHO)-K1 cells stably expressing the cloned human somatostatin receptors in 96-well format as previous reported. (Yang et al. PNAS 95:10836-10841, 1998, Birzin et al. Anal. Biochem. 307:159-166, 2002.) The stable cell lines for SSTR1-SSTR5 were developed by stably transfecting with DNA for all five SSTRs using Lipofectamine. Neomycin-resistant clones were selected and maintained in medium containing 400 μg/mL G418 (Rohrer et al. Science 282:737-740, 1998).
Binding assays were performed using (3-^125I-Tyr11)-SRIF-14 as the radioligand (used at 0.1 nM) and The Packard Unifilter assay plate. The assay buffer consisted of 50 mM TrisHCl (pH 7.8) with 1 mM EGTA, 5 mM MgCl2, leupeptin (10 μg/mL), pepstatin (10 μg/mL), bacitracin (200 μg/mL), and aprotinin (0.5 μg/mL). CHO-K1 cell membranes, radiolabeled somatostatin, and unlabeled test compounds were resuspended or diluted in this assay buffer. Unlabeled test compounds were examined over a range of concentrations from 0.01 nM to 10,000 nM. The Ki values for compounds were determined as described by Cheng and Prusoff Biochem Pharmacol. 22:3099-3108 (1973).

human SSTR3 [2] = target: T1, human SSTR3; test: SSTR3 functional antagonist assay (cAMP, FSK + SS-14, CHO cells); assay type: cell-based; conditions: 3.5 μM FSK + 100 nM SS-14; more active isomer
Method: The effects of compounds that bind to human and murine SSTR3 with various affinities on the functional activity of the receptor were assessed by measuring cAMP production in the presence of Forskolin (FSK) along or FSK plus SS-14 in SSTR3 expressing CHO cells. FSK acts to induce cAMP production in these cells by activating adenylate cyclases, whereas SS-14 suppresses cAMP production in the SSTR3 stable cells by binding to SSTR3 and the subsequent inhibition of adenylate cyclases via an alpha subunit of GTP-binding protein (Gαi).
To measure the antagonism activity of the compounds, we pre-incubated the human or mouse SSTR3 stable CHO cells with the compounds for 15 rain, followed by a one-hour incubation of the cells with a mixture of 3.5 μM FSK+100 nM SS-14 (in the continuous presence of the compounds). The amount of cAMP produced during the incubation was also quantified with the Lance cAMP assay. The antagonism activity of each compound was reflected both by % Inhibition (its maximum ability to block the action of SS-14) and an EC50 value which is the concentration of the test compound required to suppress the effect of 100 nM SS-14 by 50%. The % Inhibition of each compound was calculated using the following formula: % Inhibition=[1−(unknown cAMP/FSK+SS-14 cAMP)]×100

[3] = target: hERG potassium ion channel (Homo sapiens (Human), UniProt Q12809); test: MK-499 binding; conditions: more active isomer
Chain of hERG potassium ion channel (Q12809 whole entry): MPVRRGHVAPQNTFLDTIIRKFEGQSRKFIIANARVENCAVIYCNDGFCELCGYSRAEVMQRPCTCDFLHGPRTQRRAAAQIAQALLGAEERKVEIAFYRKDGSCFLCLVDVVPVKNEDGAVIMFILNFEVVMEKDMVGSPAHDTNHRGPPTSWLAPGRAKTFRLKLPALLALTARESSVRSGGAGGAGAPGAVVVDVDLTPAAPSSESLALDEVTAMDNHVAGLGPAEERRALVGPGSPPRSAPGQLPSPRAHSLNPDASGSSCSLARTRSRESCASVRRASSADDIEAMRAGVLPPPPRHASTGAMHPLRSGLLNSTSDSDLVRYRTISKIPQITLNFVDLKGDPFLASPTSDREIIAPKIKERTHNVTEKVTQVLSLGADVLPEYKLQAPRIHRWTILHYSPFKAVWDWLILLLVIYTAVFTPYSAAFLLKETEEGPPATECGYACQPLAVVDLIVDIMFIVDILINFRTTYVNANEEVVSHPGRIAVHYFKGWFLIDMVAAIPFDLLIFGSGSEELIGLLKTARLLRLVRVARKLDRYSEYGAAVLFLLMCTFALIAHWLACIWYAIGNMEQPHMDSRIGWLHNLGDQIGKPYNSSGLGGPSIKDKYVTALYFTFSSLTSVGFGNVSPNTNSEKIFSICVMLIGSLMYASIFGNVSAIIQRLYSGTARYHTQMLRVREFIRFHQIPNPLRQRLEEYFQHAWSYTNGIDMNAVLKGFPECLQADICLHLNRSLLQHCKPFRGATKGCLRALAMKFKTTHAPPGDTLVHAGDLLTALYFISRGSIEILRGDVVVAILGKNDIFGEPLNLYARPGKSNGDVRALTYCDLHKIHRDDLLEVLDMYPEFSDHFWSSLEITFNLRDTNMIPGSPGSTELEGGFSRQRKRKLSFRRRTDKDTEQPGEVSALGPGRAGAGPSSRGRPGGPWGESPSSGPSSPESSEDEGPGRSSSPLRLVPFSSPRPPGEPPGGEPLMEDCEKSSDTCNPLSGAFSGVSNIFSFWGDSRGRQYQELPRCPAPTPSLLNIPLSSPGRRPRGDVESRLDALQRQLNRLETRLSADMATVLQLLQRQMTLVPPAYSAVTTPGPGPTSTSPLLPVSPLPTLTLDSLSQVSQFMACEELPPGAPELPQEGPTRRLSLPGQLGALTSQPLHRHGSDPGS

human SSTR3 [4] = target: T1, human SSTR3; test: SSTR3 binding Scintillation Proximity Assay (SPA); conditions: 125I-SS14 radioligand, CHO-K1 membranes; more active isomer
Method: The receptor-ligand binding Scintillation Proximity Assay (SPA) (N. D. Cook. Drug Discovery Today 1 (1996), pp. 287-294) for SSTR3 was performed with membranes isolated from Chinese hamster ovary (CHO)-K1 cells stably expressing the cloned human somatostatin receptors. Binding assays were performed in 384 well format using ^125I-SS14 as the radioligand for SSTR3. The assay buffer consisted of 50 mM TrisHCl (pH 7.8) with 1 mM EGTA, 5 mM MgCl2, leupeptin (10 μg/mL), pepstatin (10 μg/mL), bacitracin (200 μg/mL), and aprotinin (0.5 μg/mL). CHO-K1 cell membranes were prebound to SPA beads and incubated with unlabelled test compounds and radiolabeled somatostatin in assay buffer. After 5 hours at room temperature, cpm/well was determined. Test compounds were examined in 10 point titrations over a range of concentrations from 0.00001 nM to 1200 nM. Percent inhibition was determined for each data point using binding in the presence of DMSO as the maximum achievable value. The results were plotted using 4 parameter fit and the inflection point reflecting 50% of the maximum inhibition was reported as the IC50.

T1 sequence (P32745 whole entry): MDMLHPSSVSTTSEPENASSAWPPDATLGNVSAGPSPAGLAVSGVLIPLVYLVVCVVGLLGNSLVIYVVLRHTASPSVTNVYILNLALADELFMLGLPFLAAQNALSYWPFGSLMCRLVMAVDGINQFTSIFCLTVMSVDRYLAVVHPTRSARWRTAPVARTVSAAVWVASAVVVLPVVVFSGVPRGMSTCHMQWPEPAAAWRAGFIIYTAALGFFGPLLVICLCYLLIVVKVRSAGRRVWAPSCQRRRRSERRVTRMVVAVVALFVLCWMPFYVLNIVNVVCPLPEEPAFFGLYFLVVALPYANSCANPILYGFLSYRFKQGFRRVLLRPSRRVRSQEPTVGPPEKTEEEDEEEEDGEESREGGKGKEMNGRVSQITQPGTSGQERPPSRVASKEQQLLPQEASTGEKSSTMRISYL

| SMILES | Ki (human SSTR3 [1]) | EC50 (human SSTR3 [2]) | IC50 (human SSTR3 [4]) | IC50 [3] |
| --- | --- | --- | --- | --- |
| Cc1nnc(C2(C3CCCCO3)N[C@@H](c3nc(-c4ccc(F)c(C)n4)c[nH]3)Cc3c2[nH]c2ccccc32)o1 (stereo partly shown) [Example 21] |  | 3.1 nM | 1.7 nM | 14600 nM |
| COCCOCC1(c2nnc(C)o2)N[C@@H](c2nc(-c3ccc(F)c(C)n3)c[nH]2)Cc2c1[nH]c1ccccc21 (stereo partly shown) [Example 12] | 0.4 nM | 1 nM |  | 27700 nM |
| [2H]C([2H])([2H])OC1CC2C(C1)C2C1(c2nnc(C)o2)N[C@@H](c2nc(-c3ccc(F)c(C)n3)c[nH]2)Cc2c1[nH]c1ccccc21 (stereo partly shown) [Example 22] |  | 1.57 nM | 1.2 nM | 22800 nM |
| COCCOCC1(c2nnc(C3CCOCC3)o2)N[C@@H](c2nc(-c3ccc(F)c(C)n3)c[nH]2)Cc2c1[nH]c1ccccc21 (stereo partly shown) [Example 13] | 0.5 nM | 0.5 nM |  | 19600 nM |
| COC1CCC(C2(c3nnc(C)o3)NC(c3nc(-c4ccc(F)c(C)n4)c[nH]3)Cc3c2[nH]c2ccccc32)CC1 (stereo not shown) [Example 18] | 0.3 nM | 0.6 nM |  | 17500 nM |
| Cc1nnc(C2(C3CCCO3)N[C@@H](c3nc(-c4ccc(F)c(C)n4)c[nH]3)Cc3c2[nH]c2ccccc32)o1 (stereo partly shown) [Example 20] | 0.9 nM | 4 nM | 4.6 nM | 17000 nM |
| Cc1nc(-c2c[nH]c([C@H]3Cc4c([nH]c5ccccc45)C(c4nnc(C(C)C)o4)(C4CCOCC4)N3)n2)ccc1F (stereo partly shown) [Example 19] | 0.6 nM | 0.7 nM |  | 16000 nM |
| COC1CC(C2(c3nnc(C)o3)N[C@@H](c3nc(-c4ccc(F)c(C)n4)c[nH]3)Cc3c2[nH]c2ccccc32)C1 (stereo partly shown) [Example 17] | 1.8 nM | 1.7 nM |  | 21600 nM |

Now from value to compound, other results behind:

| Ki (human SSTR3 [1]) | EC50 (human SSTR3 [2]) | IC50 (human SSTR3 [4]) | SMILES | IC50 [3] |
| --- | --- | --- | --- | --- |
| 0.4 nM | 1.3 nM |  | CCOCC1(c2nnc(C(C)C)o2)N[C@@H](c2nc(-c3ccc(F)c(C)n3)c[nH]2)Cc2c1[nH]c1ccccc21 (stereo partly shown) [Example 14] | 18600 nM |
| 2.6 nM | 2.5 nM |  | CCOCC1(c2nnc(C(C)(C)C)o2)N[C@@H](c2nc(-c3ccc(F)cn3)c[nH]2)Cc2c1[nH]c1ccccc21 (stereo partly shown) [Example 6] | 17900 nM |
| 2.7 nM | 3.5 nM |  | CCOCC1(c2nnc(CCOC)o2)N[C@@H](c2nc(-c3ccc(F)cn3)c[nH]2)Cc2c1[nH]c1ccccc21 (stereo partly shown) [Example 5] | 16500 nM |
| 0.5 nM | 0.7 nM |  | CCOCC1(c2nnc(C3(C)CCCO3)o2)N[C@@H](c2nc(-c3ccc(F)c(C)n3)c[nH]2)Cc2c1[nH]c1ccccc21 (stereo partly shown) [Example 11] | 19200 nM |
| 0.4 nM | 0.6 nM |  | COCCOCC1(c2nnc(C(C)C)o2)N[C@@H](c2nc(-c3ccc(F)c(C)n3)c[nH]2)Cc2c1[nH]c1ccccc21 (stereo partly shown) [Example 15] | 19200 nM |
| 1.4 nM | 3.7 nM |  | COCCOCC1(c2nnc(C(C)(C)C)o2)N[C@@H](c2nc(-c3ccc(F)cn3)c[nH]2)Cc2c1[nH]c1ccccc21 (stereo partly shown) [Example 8] | 19700 nM |
| 0.9 nM | 0.9 nM |  | CCOCC1(c2nnc(CCOC)o2)N[C@@H](c2nc(-c3ccc(F)c(C)n3)c[nH]2)Cc2c1[nH]c1ccccc21 (stereo partly shown) [Example 7] | 23200 nM |
| 2.5 nM | 5.1 nM |  | CCOCC1(c2nnc(C(C)C)o2)N[C@@H](c2nc(-c3ccc(F)cn3)c[nH]2)Cc2c1[nH]c1ccccc21 (stereo partly shown) [Example 9] | 20200 nM |
| 2.7 nM | 2.4 nM |  | COCCOCC1(c2nnc(C3CCOCC3)o2)N[C@@H](c2nc(-c3ccc(F)cn3)c[nH]2)Cc2c1[nH]c1ccccc21 (stereo partly shown) [Example 10] | 23400 nM |
| 0.6 nM | 8.5 nM |  | [2H]C([2H])([2H])COCC1(c2nnc(C)o2)N[C@@H](c2nc(-c3ccc(F)c(C)n3)c[nH]2)Cc2c1[nH]c1ccccc21 (stereo partly shown) [Example 16] | 22300 nM |
